# Measured values reported in patent publication US10654808B2, “Tyrosine kinase inhibitor and pharmaceutical composition comprising same” (GUANGDONG RAYNOVENT BIOTECH CO., LTD., priority 2015, dated 2020).
# How the values were obtained:
# Assay type in all cases: biochemical
# [1] = biological target: T1, VEGFR2 (Homo sapiens, UniProt P35968); assay: Z'-LYTE in vitro enzyme activity assay, VEGFR2; conditions: 100 μM ATP, 60 minutes, room temperature; read-out: IC50 detected by Z'-LYTE, VEGFR2
# T1 construct: purchased Life technology
# Description: (§1) The enzyme activity was measured by Z′-LYTE™ Detection Kinase Assay. The IC50 value of the compounds was used as an index to evaluate the inhibitory effect of the compounds on VEGFR2, FGFR1 and PDGFRB.
# (§2) Recombinant human VEGFR2 and FGFR1 proteases were purchased from Life technology, PDGFRB Protease was purchased from Millipore.
# (§3) Z-LYTE™ Kit Tyr1 and Tyr4 were purchased from Life technology. Multi-microplate reader, Envision (PerkinElmer) read board was used.
# (§4) The test compounds were diluted 3 times with a concentration gradient, the final concentration was from 10 μM to 0.17 nM with a total of 11 concentrations, and each concentration had two parallel holes; the content of DMSO in the assay was 1%.
# 3 nM VEGFR2 protein kinase, 2 μM Tyr1 peptide, 100 μM ATP, 50 mM HEPES (pH 7.5), 10 mM MgCl2, 1 mM EGTA, 0.01% BRIJ-35. The detector plate was Black Proxiplate 384-Plus plate (PerkinElmer), the reaction was performed at room temperature for 60 minutes, and the reaction system was 10 μl.
# (§5) The reaction was stopped by adding 5 μl of DV reagent B (1:128) to the kinase reaction solution and incubated at 23° C. for 60 minutes. The Envision instrument was used to read the plate.
# (§6) The data was converted to phosphorylation rate and inhibition rate and the 4 parameter curve fitting (Model 205 in XLFIT5, iDBS) was used to get IC50 data of the compounds.
# [2] = biological target: T2, FGFR1 (Homo sapiens, UniProt P11362); assay: Z'-LYTE in vitro enzyme activity assay, FGFR1; conditions: 25 μM ATP, 60 minutes, room temperature; read-out: IC50 detected by Z'-LYTE, FGFR1
# T2 construct: purchased Life technology
# Description: as §1, §2, §3, §4
# (§7) 1 nM FGFR1 protein kinase, 2 μM Tyr4 peptide, 25 μM ATP, 50 mM HEPES (pH 7.5), 10 mM MgCl2, 1 mM EGTA, 0.01% BRIJ-35, 2 mM MnCl2, 1 mM DTT. The detector plate was Black Proxiplate 384-Plus plate (PerkinElmer), the reaction was performed at room temperature for 60 minutes, and the reaction system was 10 μl.
# as §5, §6
# [3] = biological target: T3, PDGFRB (Homo sapiens, UniProt P09619); assay: Z'-LYTE in vitro enzyme activity assay, PDGFRB; conditions: 100 μM ATP, 60 minutes, room temperature; read-out: IC50 detected by Z'-LYTE, PDGFRB
# T3 construct: purchased Millipore
# Description: as §1, §2, §3, §4
# as §7, with “40 nM PDGFRB” for “1 nM FGFR1”, “40 nM PDGFRB protein kinase,” for “1 nM FGFR1 protein kinase,”, “Tyr4 peptide, 100 μM ATP,” for “Tyr4 peptide, 25 μM ATP,”
# as §5, §6
# T3 sequence (P09619 33-1106): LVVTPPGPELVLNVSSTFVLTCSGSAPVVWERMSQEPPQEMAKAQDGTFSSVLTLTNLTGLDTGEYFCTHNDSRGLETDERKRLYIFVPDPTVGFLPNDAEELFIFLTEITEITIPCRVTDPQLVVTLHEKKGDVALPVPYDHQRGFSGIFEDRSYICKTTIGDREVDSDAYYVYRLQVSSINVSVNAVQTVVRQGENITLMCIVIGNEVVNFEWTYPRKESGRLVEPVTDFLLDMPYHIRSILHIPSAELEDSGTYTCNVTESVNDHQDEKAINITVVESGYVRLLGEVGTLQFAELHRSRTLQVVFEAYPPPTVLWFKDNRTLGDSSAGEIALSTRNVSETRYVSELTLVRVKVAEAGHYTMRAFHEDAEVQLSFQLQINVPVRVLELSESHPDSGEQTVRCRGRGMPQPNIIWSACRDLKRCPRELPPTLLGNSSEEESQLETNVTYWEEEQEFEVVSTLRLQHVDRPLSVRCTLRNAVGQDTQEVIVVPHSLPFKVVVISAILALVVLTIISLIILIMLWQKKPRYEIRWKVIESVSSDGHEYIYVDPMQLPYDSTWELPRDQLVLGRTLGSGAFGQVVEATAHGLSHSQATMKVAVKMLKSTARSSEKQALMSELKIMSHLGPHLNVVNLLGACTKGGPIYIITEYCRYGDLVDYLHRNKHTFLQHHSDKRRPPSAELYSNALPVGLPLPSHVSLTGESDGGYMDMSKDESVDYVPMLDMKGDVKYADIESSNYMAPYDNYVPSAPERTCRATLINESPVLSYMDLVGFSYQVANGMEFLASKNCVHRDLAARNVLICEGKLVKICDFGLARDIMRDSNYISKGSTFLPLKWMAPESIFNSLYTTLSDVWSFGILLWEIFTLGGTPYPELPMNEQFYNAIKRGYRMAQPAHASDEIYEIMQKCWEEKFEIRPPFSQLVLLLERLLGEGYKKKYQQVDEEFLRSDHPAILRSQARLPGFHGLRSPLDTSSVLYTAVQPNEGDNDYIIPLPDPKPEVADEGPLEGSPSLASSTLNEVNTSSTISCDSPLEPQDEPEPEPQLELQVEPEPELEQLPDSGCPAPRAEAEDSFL
# T1 sequence (P35968 20-1356): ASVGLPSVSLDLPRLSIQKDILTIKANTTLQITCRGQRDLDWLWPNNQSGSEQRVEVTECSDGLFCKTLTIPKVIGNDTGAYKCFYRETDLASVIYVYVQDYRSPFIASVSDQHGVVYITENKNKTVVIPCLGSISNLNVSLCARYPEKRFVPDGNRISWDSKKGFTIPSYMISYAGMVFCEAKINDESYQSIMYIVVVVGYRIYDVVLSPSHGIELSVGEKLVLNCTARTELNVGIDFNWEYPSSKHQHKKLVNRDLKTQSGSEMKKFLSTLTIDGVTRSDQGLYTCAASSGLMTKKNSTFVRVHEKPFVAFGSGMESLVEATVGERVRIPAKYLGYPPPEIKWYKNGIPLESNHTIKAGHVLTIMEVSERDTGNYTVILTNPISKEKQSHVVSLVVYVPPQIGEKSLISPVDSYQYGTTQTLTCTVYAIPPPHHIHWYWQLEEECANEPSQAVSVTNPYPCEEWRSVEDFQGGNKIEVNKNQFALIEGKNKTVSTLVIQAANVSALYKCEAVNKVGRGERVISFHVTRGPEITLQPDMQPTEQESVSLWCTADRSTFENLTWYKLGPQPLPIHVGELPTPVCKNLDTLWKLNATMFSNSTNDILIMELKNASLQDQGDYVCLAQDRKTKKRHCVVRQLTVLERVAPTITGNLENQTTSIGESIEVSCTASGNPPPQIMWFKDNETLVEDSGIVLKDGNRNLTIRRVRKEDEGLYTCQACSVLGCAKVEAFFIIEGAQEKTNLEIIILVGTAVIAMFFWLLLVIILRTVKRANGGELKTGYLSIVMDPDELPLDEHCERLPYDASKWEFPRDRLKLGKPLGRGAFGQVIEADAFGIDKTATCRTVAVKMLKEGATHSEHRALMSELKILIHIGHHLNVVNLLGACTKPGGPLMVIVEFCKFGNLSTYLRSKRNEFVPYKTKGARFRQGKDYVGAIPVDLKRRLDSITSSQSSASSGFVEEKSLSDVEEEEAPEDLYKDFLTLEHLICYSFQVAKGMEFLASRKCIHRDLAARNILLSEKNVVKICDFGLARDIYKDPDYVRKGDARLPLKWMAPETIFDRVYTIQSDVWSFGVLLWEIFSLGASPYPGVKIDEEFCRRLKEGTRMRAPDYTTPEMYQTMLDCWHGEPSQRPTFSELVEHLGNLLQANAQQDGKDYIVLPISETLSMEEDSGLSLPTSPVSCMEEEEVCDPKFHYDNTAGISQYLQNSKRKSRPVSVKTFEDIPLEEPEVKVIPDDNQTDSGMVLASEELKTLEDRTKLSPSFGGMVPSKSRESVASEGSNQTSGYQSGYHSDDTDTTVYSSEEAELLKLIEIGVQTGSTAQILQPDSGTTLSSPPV
# T2 sequence (P11362 22-822): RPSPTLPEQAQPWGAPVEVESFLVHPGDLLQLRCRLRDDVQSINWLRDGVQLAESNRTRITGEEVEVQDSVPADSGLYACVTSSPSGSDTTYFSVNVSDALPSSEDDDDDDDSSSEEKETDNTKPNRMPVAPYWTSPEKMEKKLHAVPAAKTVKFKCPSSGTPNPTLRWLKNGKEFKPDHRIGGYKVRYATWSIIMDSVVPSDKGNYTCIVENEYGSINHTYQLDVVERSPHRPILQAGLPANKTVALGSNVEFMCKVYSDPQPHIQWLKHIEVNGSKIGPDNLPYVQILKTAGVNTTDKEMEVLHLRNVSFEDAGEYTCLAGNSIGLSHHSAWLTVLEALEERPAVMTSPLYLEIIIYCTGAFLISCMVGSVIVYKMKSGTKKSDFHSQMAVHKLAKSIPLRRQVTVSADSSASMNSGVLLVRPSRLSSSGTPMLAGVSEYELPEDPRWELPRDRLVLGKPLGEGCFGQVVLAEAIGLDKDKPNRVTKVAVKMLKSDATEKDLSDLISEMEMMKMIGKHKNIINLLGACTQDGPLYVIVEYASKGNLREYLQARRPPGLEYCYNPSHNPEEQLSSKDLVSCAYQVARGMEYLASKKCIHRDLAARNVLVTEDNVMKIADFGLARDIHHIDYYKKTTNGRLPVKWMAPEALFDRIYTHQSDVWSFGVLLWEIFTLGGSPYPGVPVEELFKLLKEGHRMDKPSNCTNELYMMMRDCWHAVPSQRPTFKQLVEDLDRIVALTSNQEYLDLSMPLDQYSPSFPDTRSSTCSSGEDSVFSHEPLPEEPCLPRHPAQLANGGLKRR
SMILES,IC50 [1] [µM],IC50 [2] [µM],IC50 [3] [µM]
COc1cc2nccc(Oc3ccc(NC(=S)Nc4ccc(Cl)c(F)c4)c(Cl)c3)c2cc1C(N)=O [Example 3],0.2 to 1,0.2 to 1,0.2 to 1
COc1cc2nccc(Oc3ccc(NC(=S)Nc4cc[nH]n4)c(Cl)c3)c2cc1C(N)=O [Example 4],0.05 to 0.2,0.2 to 1,0.2 to 1
COc1cc2nccc(Oc3ccc(NC(=S)NCc4ccncc4)c(Cl)c3)c2cc1C(N)=O [Example 5],0.05 to 0.2,0.2 to 1,0.05 to 0.2
COc1cc2nccc(Oc3ccc(NC(=S)Nc4cccc(C(F)(F)F)c4)c(Cl)c3)c2cc1C(N)=O [Example 7],0.05 to 0.2,0.2 to 1,0.2 to 1
COc1cc2nccc(Oc3ccc(NC(=S)NCc4ccc(Cl)cc4)c(Cl)c3)c2cc1C(N)=O [Example 9],0.2 to 1,0.2 to 1,< 0.05
COc1cc2nccc(Oc3ccc(NC(=S)Nc4cccnc4)c(Cl)c3)c2cc1C(N)=O [Example 10],0.05 to 0.2,0.2 to 1,0.05 to 0.2
COc1cc2nccc(Oc3ccc(NC(=S)NCc4ccccn4)c(Cl)c3)c2cc1C(N)=O [Example 11],0.2 to 1,0.2 to 1,0.05 to 0.2
COc1cc2nccc(Oc3ccc(NC(=S)NCCc4ccccc4)c(Cl)c3)c2cc1C(N)=O [Example 14],0.2 to 1,0.2 to 1,0.05 to 0.2
COc1cc2nccc(Oc3ccc(NC(=S)NC4CCOCC4)c(Cl)c3)c2cc1C(N)=O [Example 15],0.2 to 1,0.2 to 1,0.05 to 0.2
COc1cc2nccc(Oc3ccc(NC(=S)NCc4ccc(F)cc4)c(Cl)c3)c2cc1C(N)=O [Example 17],0.2 to 1,0.2 to 1,0.05 to 0.2
COc1cc2nccc(Oc3ccc(NC(=S)NCCC#N)c(Cl)c3)c2cc1C(N)=O [Example 18],0.2 to 1,0.2 to 1,0.2 to 1
COc1cc2nccc(Oc3ccc(NC(=S)NCCN4CCOCC4)c(Cl)c3)c2cc1C(N)=O [Example 19],0.2 to 1,0.2 to 1,< 0.05
COc1cc2nccc(Oc3ccc(NC(=S)NCc4cccnc4)c(Cl)c3)c2cc1C(N)=O [Example 20],0.05 to 0.2,0.2 to 1,< 0.05
COc1cc2nccc(Oc3ccc(NC(=S)N[C@@H](C)CO)c(Cl)c3)c2cc1C(N)=O [Example 22],0.05 to 0.2,0.2 to 1,0.05 to 0.2
COc1cc2nccc(Oc3ccc(NC(=S)NCCN(C)C)c(Cl)c3)c2cc1C(N)=O [Example 23],0.2 to 1,0.2 to 1,0.05 to 0.2
COc1cc2nccc(Oc3ccc4c(c3)CCN4C(=S)NC3CC3)c2cc1C(N)=O [Example 24],0.2 to 1,0.2 to 1,0.2 to 1
Cc1c(OCC(C)O)cn2ncnc(Oc3ccc(NC(=S)NC4CC4)c(Cl)c3)c12 (centres unmarked) [Example 25],0.2 to 1,0.2 to 1,0.2 to 1
COc1cc2nccc(Oc3ccc4c(c3)CCCN4C(=S)NC3CC3)c2cc1C(N)=O [Example 26],0.05 to 0.2,0.2 to 1,0.2 to 1
COc1cc2nccc(Oc3ccc(NC(=S)NC4CC(O)C4)c(Cl)c3)c2cc1C(N)=O (centres unmarked) [Example 27],0.05 to 0.2,0.2 to 1,0.05 to 0.2
COc1cc2nccc(Oc3ccc(NC(=S)NCCCO)c(Cl)c3)c2cc1C(N)=O [Example 29],0.05 to 0.2,0.2 to 1,0.05 to 0.2
COc1cc2nccc(Oc3ccc(NC(=S)NCC(C)(C)O)c(Cl)c3)c2cc1C(N)=O [Example 30],0.2 to 1,0.2 to 1,0.2 to 1
CCN(CC)CCOc1cc2nccc(Oc3ccc(NC(=S)NC4CC4)c(Cl)c3)c2cc1C(N)=O [Example 31],0.2 to 1,0.2 to 1,0.2 to 1
COc1cc2nccc(Oc3ccc(NC(=S)N4CCCC4)c(Cl)c3)c2cc1C(N)=O [Example 32],< 0.05,0.2 to 1,0.2 to 1
COc1cc2nccc(Oc3ccc(NC(=O)NC(C)(C)C(F)(F)F)c(Cl)c3)c2cc1C(N)=O [Example 33],0.2 to 1,0.2 to 1,0.05 to 0.2
COc1cc2nccc(Oc3ccc4c(c3)CCCN4C(=S)NCC(F)F)c2cc1C(N)=O [Example 34],0.2 to 1,0.2 to 1,0.05 to 0.2
COc1cc2nccc(Oc3ccc(NC(=S)N4CC(F)(F)C4)c(Cl)c3)c2cc1C(N)=O [Example 35],< 0.05,0.05 to 0.2,0.05 to 0.2
CCOP(=O)(Cc1ccc(Oc2ccnc3cc(OC)c(C(N)=O)cc23)cc1Cl)NC1CC1 (centres unmarked) [Example 132],0.2 to 1,–,–

# Further lines, results first:
IC50 [1] [µM],IC50 [2] [µM],IC50 [3] [µM],SMILES
0.2 to 1,0.2 to 1,0.2 to 1,COc1cc2nccc(Oc3ccc(NC(=O)NC(C)C(F)(F)F)c(Cl)c3)c2cc1C(N)=O (centres unmarked) [Example 36]
< 0.05,0.2 to 1,0.05 to 0.2,COc1cc2nccc(Oc3ccc(NC(=S)NC4CC4)c(Cl)c3)c2cc1C(=O)NCC(F)F [Example 37]
0.05 to 0.2,0.2 to 1,0.2 to 1,COc1cc2nccc(Oc3ccc(NC(=S)NC4CC4)c(Cl)c3)c2cc1C(=O)NCC(F)(F)F [Example 38]
0.05 to 0.2,0.2 to 1,0.05 to 0.2,CCN(CC)CCNC(=O)c1cc2c(Oc3ccc(NC(=S)NC4CC4)c(Cl)c3)ccnc2cc1OC [Example 39]
0.05 to 0.2,0.2 to 1,0.05 to 0.2,CCN(CC)CCCNC(=O)c1cc2c(Oc3ccc(NC(=S)NC4CC4)c(Cl)c3)ccnc2cc1OC [Example 40]
< 0.05,0.2 to 1,0.2 to 1,COc1cc2nccc(Oc3ccc(NC(=S)NC4CC4)c(C(F)(F)F)c3)c2cc1C(N)=O [Example 41]
0.2 to 1,0.2 to 1,0.2 to 1,COc1cc2nccc(Oc3ccc(NC(=S)NC4CC4)cc3C(F)(F)F)c2cc1C(N)=O [Example 42]
0.2 to 1,0.2 to 1,< 0.05,COc1cc2nccc(Oc3ccc(NC(=S)NC4CC4)nc3)c2cc1C(N)=O [Example 43]
0.2 to 1,0.2 to 1,0.2 to 1,O=C1NCOc2cc3nccc(Oc4ccc(NC(=S)NC5CC5)c(Cl)c4)c3cc21 [Example 45]
0.2 to 1,0.2 to 1,0.2 to 1,COc1cc2nccc(Oc3ccc(NC(=S)NC4CC4)c(Cl)c3)c2cc1C(=O)N(C)C [Example 47]
0.2 to 1,0.2 to 1,0.05 to 0.2,COc1cc2nccc(Oc3ccc(NC(=S)NC4CC4)c(Cl)c3)c2cc1C(=O)N1CCCC1 [Example 48]
0.2 to 1,0.2 to 1,0.05 to 0.2,COc1cc2nccc(Oc3ccc(NC(=S)NC4CC4)c(Cl)c3)c2cc1C(=O)N1CCCCC1 [Example 49]
0.2 to 1,0.2 to 1,0.05 to 0.2,COc1cc2nccc(Oc3ccc(NC(=S)N4CCN(C)CC4)c(Cl)c3)c2cc1C(N)=O [Example 51]
0.2 to 1,–,–,NC(=O)c1ccn2ncc(Oc3ccc(NC(=O)NC4CC4)c(Cl)c3)c2c1 [Example 125]
< 0.05,–,–,Cc1c(OC[C@@H](C)O)cn2ncnc(Oc3ccc(NC(=O)NC4CC4)c(Cl)c3)c12 [Example 126]
0.2 to 1,–,–,COc1cc2nccc(OCC3CC(NC(=O)NC4CC4)C3)c2cc1C(N)=O (centres unmarked) [Example 128]
0.2 to 1,–,–,COc1cc2nccc(OC3CC(NC(=O)NC4CC4)C3)c2cc1C(N)=O (centres unmarked) [Example 129]
0.2 to 1,–,–,COc1cc2nccc(Oc3ccc(CP(=O)(O)NC4CC4)c(Cl)c3)c2cc1C(N)=O [Example 133]
0.2 to 1,–,–,COc1cc2nccc(Oc3ccc(N/C(=C/[N+](=O)[O-])NC4CC4)c(Cl)c3)c2cc1C(N)=O [Example 134]
0.2 to 1,–,–,COc1cc2nccc(Oc3ccc(Nc4nc(=O)cc(C)[nH]4)c(Cl)c3)c2cc1C(N)=O [Example 135]
0.2 to 1,–,–,COc1cc2nccc(Oc3ccc4nc(Nc5ccc(Cl)c(F)c5)sc4c3)c2cc1C(N)=O [Example 159]
0.2 to 1,–,–,COc1cc2nccc(Oc3ccc(-c4c[nH]c(C(C)C)n4)c(Cl)c3)c2cc1C(N)=O [Example 179]
0.2 to 1,–,–,COc1cc2nccc(Oc3ccc4oc(C(=O)N5CCCC5)cc4c3)c2cc1C(N)=O [Example 192]
